Legend:
[1] = molecular target: human vasopressin V1a receptor (Homo sapiens, UniProt P37288); assay: Receptor binding study, [3H]AVP displacement on CHO cell membranes, human V1a; details: [3H]AVP displacement, CHO cell membrane, 25° C., one hour; read-out: Human V1a Ki
Procedure: (§1) (ii) Receptor Binding Study
(§2) Assay was performed using 50 mM of Tris-HCl (pH=7.4) (total amount: 250 μL) (buffer composition: containing […] of MgCl2 and 0.1% BSA), and incubation was performed at room temperature (25° C.) for one hour. After incubation, suck filtration was immediately performed and reaction was completed when the membrane sample was collected on a glass fiber filter fitted with the microplate. After the filter was washed with an ice-cold Tris-HCl buffer (50 mM Tris-HCl, 10 mM MgCl2, pH 7.4), radioactivity measurement was performed. Nonspecific binding was determined using nonradioactive-labeled AVP (1 μM).

[2] = molecular target: human vasopressin V2 receptor (Homo sapiens, UniProt P30518); assay: Receptor binding study, [3H]AVP displacement on CHO cell membranes, human V2; details: [3H]AVP displacement, CHO cell membrane, 25° C., one hour; read-out: Human V2 Ki
Chain of human vasopressin V2 receptor (P30518 whole entry): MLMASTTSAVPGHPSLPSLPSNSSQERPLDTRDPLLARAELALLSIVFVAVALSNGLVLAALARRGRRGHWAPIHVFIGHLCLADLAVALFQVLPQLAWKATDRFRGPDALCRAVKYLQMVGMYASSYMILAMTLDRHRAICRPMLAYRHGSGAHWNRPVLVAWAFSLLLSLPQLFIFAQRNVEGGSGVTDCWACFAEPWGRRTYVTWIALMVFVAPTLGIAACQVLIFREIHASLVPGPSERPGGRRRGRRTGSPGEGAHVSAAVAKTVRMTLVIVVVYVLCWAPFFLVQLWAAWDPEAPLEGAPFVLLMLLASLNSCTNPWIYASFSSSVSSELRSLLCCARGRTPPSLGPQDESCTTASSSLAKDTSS
Procedure: Preparation of Chinese hamster ovary (Cho) cell which expresses human vasopressin receptor subtype and production of membrane sample of the cell was conducted according to the method of Tahara et al. (Br. J. Pharmacol., 125, 1463-1470, 1998).
as §1
as §2, with “In saturation binding experiment, the membrane sample and [^3H]AVP of several concentrations (0.125 nM to 4.0 nM) were mixed and incubated in microplate wells. In displacement experiment, [^3H]AVP of constant concentrations (0.5 nM to 1.0 nM) and the membrane sample were mixed with Compound A of several concentrations, and incubation was performed. Assay” for “Assay”

Chain of human vasopressin V1a receptor (P37288 whole entry): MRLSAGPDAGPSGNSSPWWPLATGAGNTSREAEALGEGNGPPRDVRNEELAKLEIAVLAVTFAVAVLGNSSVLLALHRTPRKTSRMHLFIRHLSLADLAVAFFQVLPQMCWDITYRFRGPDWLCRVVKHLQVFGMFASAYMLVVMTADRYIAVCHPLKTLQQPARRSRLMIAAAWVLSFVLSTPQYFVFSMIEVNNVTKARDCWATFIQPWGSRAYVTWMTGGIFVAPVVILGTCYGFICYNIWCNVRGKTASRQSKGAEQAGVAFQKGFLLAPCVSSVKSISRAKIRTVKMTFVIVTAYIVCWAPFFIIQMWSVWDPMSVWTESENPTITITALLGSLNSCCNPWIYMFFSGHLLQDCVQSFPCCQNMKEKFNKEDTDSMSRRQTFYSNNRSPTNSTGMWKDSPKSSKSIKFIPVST

Compound | Ki [1] [nM] | Ki [2] [nM]
C[C@H]1CCN(C(=O)c2ccc(-c3ccc4[nH]ccc4c3)c(C(=O)CCCCN(C)C)c2)c2ccccc2N1 [Example 158, 5-(dimethylamino)-1-[2-(1H-indol-5-yl)-5-[[(4S)-4-methyl-2,3,4,5-tetrahydro-1H-1,5-benzodiazepin-1-yl]carbonyl]phenyl]-1-pentanone] | 0.11 | 13
CCN(C)CCCCOc1cc(C(=O)N2CC[C@H](C)Nc3ccccc32)ccc1-c1ccc2[nH]ccc2c1 [Example 172, N-ethyl-4-[2-(1H-indol-5-yl)-5-[[(4S)-4-methyl-2,3,4,5-tetrahydro-1H-1,5-benzodiazepin-1-yl]carbonyl]phenoxy]-N-methyl-1-butaneamine] | 0.093 | 7.1
C[C@H]1CCN(C(=O)c2ccc(-c3ccc4[nH]ccc4c3)c(OCCCN3CCC(NC=O)CC3)c2)c2ccccc2N1 [Example 87, 1-[3-[2-(1H-indol-5-yl)-5-[[(4S)-4-methyl-2,3,4,5-tetrahydro-1H-1,5-benzodiazepin-1-yl]carbonyl]phenoxy]propyl]-4-piperidinylformamide] | 0.086 | 8.7
C[C@H]1CCN(C(=O)c2ccc(-c3ccc4[nH]ccc4c3)c(OCCCN(C)CCN(C)C)c2)c2ccccc2N1 [Example 112, N1-[3-[2-(1H-indol-5-yl)-5-[[(4S)-4-methyl-2,3,4,5-tetrahydro-1H-1,5-benzodiazepin-1-yl)carbonyl]phenoxy]propyl]-N1,N2,N2-trimethyl-1,2-ethaneamine] | 0.42 | 23
CCCN(C)C1CCN(CCOc2cc(C(=O)N3CC[C@H](C)Nc4ccccc43)ccc2-c2ccc3[nH]ccc3c2)CC1 [Example 151, N-[1-[2-[2-(1H-indol-5-yl)-5-[[(4S)-4-methyl-2,3,4,5-tetrahydro-1H-1,5-benzodiazepin-1-yl]carbonyl]phenoxy]ethyl]-4-piperidinyl]-N-methyl-N-propylamine] | 0.25 | 10
C[C@H]1CCN(C(=O)c2ccc(-c3ccc4[nH]ccc4c3)c(OCCN3CCOCC3)c2)c2ccccc2N1 [Example 59, (4S)-1-[4-(1H-indol-5-yl)-3-[2-(4-morpholinyl)ethoxy]benzoyl]-4-methyl-2,3,4,5-tetrahydro-1H-1,5-benzodiazepine] | 0.23 | 0.89
COc1cc(C(=O)N2CC[C@H](C)Nc3ccccc32)ccc1-c1ccc2[nH]ccc2c1 [Example 47, (4S)-1-[4-(1H-indol-5-yl)-3-methoxybenzoyl]-4-methyl-2,3,4,5-tetrahydro-1H-1,5-benzodiazepine] | 0.39 | 1.2
CCCN1CCN(CCCOc2cc(C(=O)N3CC[C@H](C)Nc4ccccc43)ccc2-c2ccc(NCC)cc2)CC1 [Example 159, N-ethyl-4′-[[(4S)-4-methyl-2,3-4,5-tetrahydro-1H-1,5-benzodiazepin-1-yl]carbonyl]-2′-[3-(4-propyl-1-piperazinyl)propoxy][1,1′-biphenyl]-4-amine] | 0.18 | 11
C[C@H]1CCN(C(=O)c2ccc(-c3ccc4[nH]ccc4c3)c(C(=O)OCCN(C)C)c2)c2ccccc2N1 [Example 144, 2-(dimethylamino)ethyl 2-(1H-indol-5-yl)-5-[[(4S)-4-methyl-2,3,4,5-tetrahydro-1H-1,5-benzodiazepin-1-yl]carbonyl]benzoate] | 0.11 | 28
CC1CCN(C(=O)c2ccc(-c3ccc4[nH]ccc4c3)c(OCCCCN)c2)c2ccccc2N1 (centres unmarked) [Example 36, 4-[2-(1H-indol-5-yl)-5-[(4-methyl-2,3,4,5-tetrahydro-1H-1,5-benzodiazepin-1-yl)carbonyl]phenoxy]-1-butaneamine] | 0.23 | 11
CC(=O)N1CCN(CCCOc2cc(C(=O)N3CC[C@H](C)Nc4ccccc43)ccc2-c2ccc3[nH]ccc3c2)CC1 [Example 73, (4S)-1-[3-[3-(4-acetyl-1-piperazinyl)propoxy]-4-(1H-indol-5-yl)]-4-methyl-2,3,4,5-tetrahydro-1H-1,5-benzodiazepine] | 0.19 | 4.6
CC1CCN(C(=O)c2ccc(-c3ccc4[nH]ccc4c3)c(OCCCN(C)C)c2)c2ccccc2N1 (centres unmarked) [Example 42, 3-[2-(1H-indol-5-yl)-5-[(4-methyl-2,3,4,5-tetrahydro-1H-1,5-benzodiazepin-1-yl)carbonyl]phenoxy]-N,N-dimethyl-1-propaneamine] | 0.19 | 34
C[C@H]1CCN(C(=O)c2ccc(-c3ccc4[nH]ccc4c3)c(OCCCN3C(=O)CSC3=O)c2)c2ccccc2N1 [Example 100, 3-[3-[2-(1H-indol-5-yl)-5-[[(4S)-4-methyl-2,3,4,5-tetrahydro-1H-1,5-benzodiazepin-1-yl]carbonyl]phenoxy]propyl]-1,3-thiazolidine-2,4-dione] | 0.46 | 3.2
CC(=O)Nc1cc(C(=O)N2CCC(C(C)C)Nc3ccccc32)ccc1-c1ccc2[nH]ccc2c1 (centres unmarked) [Example 7, N-[2-(1H-indol-5-yl)-5-[(4-isopropyl-2,3,4,5-tetrahydro-1H-1,5-benzodiazepin-1-yl)carbonyl]phenyl]acetamide] | 0.38 | 15
CCCN1CCC(OC(=O)c2cc(C(=O)N3CC[C@H](C)Nc4ccccc43)ccc2-c2ccc3[nH]ccc3c2)CC1 [Example 138] | 0.23 | 34
CCCN(C)CCCOc1cc(C(=O)N2CC[C@H](C)Nc3ccccc32)ccc1-c1ccc(NCC)c(F)c1 [Example 154, N-ethyl-3-fluoro-2′-[3-[methyl(propyl)amino]propoxy]-4′-[[(4S)-4-methyl-2,3-4,5-tetrahydro-1H-1,5-benzodiazepin-1-yl]carbonyl][1,1′-biphenyl]-4-amine] | 0.4 | 53
C[C@H]1CCN(C(=O)c2ccc(-c3ccc4[nH]ccc4c3)c(NS(C)(=O)=O)c2)c2ccccc2N1 [Example 48, N-[2-(1H-indol-5-yl)-5-[[(4S)-4-methyl-2,3,4,5-tetrahydro-1H-1,5-benzodiazepin-1-yl]carbonyl]phenyl]methanesulfonamide] | 0.23 | 1.5
C[C@H]1CCN(C(=O)c2ccc(-c3ccc4[nH]ccc4c3)c(OCCCN3CCC(N4CCOCC4)CC3)c2)c2ccccc2N1 [Example 107, (4S)-1-[4-(1H-indol-5-yl)-3-[3-[4-(4-morpholinyl)-1-piperidinyl]propoxy]benzoyl]-4-methyl-2,3,4,5-tetrahydro-1H-1,5-benzodiazepine] | 0.13 | 33
CCCN(C)CCCOc1cc(C(=O)N2CC[C@H](C)Nc3ccccc32)ccc1-c1ccc(OC(F)F)cc1 [Example 157, N-(3-[[4′-(difluoromethoxy)-4-[[(4S)-4-methyl-2,3,4,5-tetrahydro-1H-1,5-benzodiazepin-1-yl]carbonyl][1,1′-biphenyl]-2-yl]oxy]propyl]-N-methyl-N-propylamine] | 0.28 | 28
Cc1ccc2c(c1)NC(C)CCN2C(=O)c1ccc(-c2ccc3[nH]ccc3c2)c(OCCN2CCOCC2)c1 (centres unmarked) [Example 104, 5-[(4,7-dimethyl-2,3,4,5-tetrahydro-1H-1,5-benzodiazepin-1-yl]carbonyl]-2-(1H-indol-5-yl)phenyl 2-(4-morpholinyl)ethyl ether] | 0.35 | 3.5
CC1CCN(C(=O)c2ccc(-c3ccc4[nH]ccc4c3)c(OCCCN)c2)c2ccccc2N1 (centres unmarked) [Example 30, 3-[2-(1H-indol-5-yl)-5-[(4-methyl-2,3,4,5-tetrahydro-1H-1,5-benzodiazepin-1-yl)carbonyl]phenoxy]-1-propaneamine] | 0.091 | 17
CC1CCN(C(=O)c2ccc(-c3ccc4[nH]ccc4c3)c(OCCN3CCOCC3)c2)c2ccccc2N1 (centres unmarked) [Example 46, 2-(1H-indol-5-yl)-5-[(4-methyl-2,3,4,5-tetrahydro-1H-1,5-benzodiazepin-1-yl)carbonyl]phenyl 2-(4-morpholinyl)ethyl ether] | 0.24 | 1.1
C[C@@H]1CCN(C(=O)c2ccc(-c3ccc4[nH]ccc4c3)c(OCCN3CCOCC3)c2)c2ccccc2N1 [Example 66, (4R)-1-[4-(1H-indol-5-yl)-3-[2-(4-morpholinyl)ethoxy]benzoyl]-4-methyl-2,3,4,5-tetrahydro-1H-1,5-benzodiazepine] | 0.41 | 3.6
CCCN(C)CCCOc1cc(C(=O)N2CC[C@@H](C)Nc3ccccc32)ccc1-c1ccc(NC)cc1 [Example 130, N-methyl-2′-[3-[methyl(propyl)amino]propoxy]-4′-[[(4R)-4-methyl-2,3,4,5-tetrahydro-1H-1,5-benzodiazepin-1-yl]carbonyl][1,1′-biphenyl]-4-amine] | 0.36 | 309
C[C@H]1CCN(C(=O)c2ccc(-c3ccc4[nH]ccc4c3)c(OCCCCN3CCN(C)CC3)c2)c2ccccc2N1 [Example 103] | 0.24 | 3.6

Reference: patent publication US20080076760A1, “2,3,4,5-TETRAHYDRO-1H-1,5-BENZODIAZEPINE DERIVATIVE AND MEDICINAL COMPOSITION” (priority 2004, published 2008)
